Data on three compounds can be found in patent publication US20110105397A1, “METHOD FOR TREATING HEART FAILURE WITH STRESSCOPIN-LIKE PEPTIDES” (priority 2009, published 2011).

One assay concerns the target T1, human CRHR2 (Homo sapiens, UniProt Q13324).
T1 construct: expressed in transfected cells
T1 sequence (Q13324 1-411): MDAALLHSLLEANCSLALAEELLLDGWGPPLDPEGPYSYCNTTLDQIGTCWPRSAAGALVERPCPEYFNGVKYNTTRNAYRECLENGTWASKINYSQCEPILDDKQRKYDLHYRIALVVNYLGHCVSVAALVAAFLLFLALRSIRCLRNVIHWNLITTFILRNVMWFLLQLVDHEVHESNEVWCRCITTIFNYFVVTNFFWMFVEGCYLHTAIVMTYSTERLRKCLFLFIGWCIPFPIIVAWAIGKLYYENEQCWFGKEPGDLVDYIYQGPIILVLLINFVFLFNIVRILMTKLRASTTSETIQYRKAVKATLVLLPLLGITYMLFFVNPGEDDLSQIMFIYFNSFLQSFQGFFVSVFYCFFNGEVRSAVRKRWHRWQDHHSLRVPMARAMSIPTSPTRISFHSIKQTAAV
The experiment in a line: CRHR2 radioligand binding, [125I]-anti-sauvagine-30, SK-N-MC membranes. To be noted: for Ki / nH: CRHR2. The protocol:
The binding profile of h-SCP (SEQ ID NO:1) at CRHR2 was determined in radioligand binding studies in a membrane preparation of SK-N-MC cells stably transfected with human CRHR2 using [^125I]-anti-sauvagine-30 as the radiolabel. […] The solution was then homogenized with a Polytron tissue grinder at a setting of 10 and 7×3 s (Brinkmann Instruments, Westbury, N.Y.). […] The supernatant was re-centrifuged at 26,892×g for 25 min at 4° Celsius with the final pellet being re-suspended in assay buffer. […] For competition studies, cell membranes of […] volume were incubated with either 60 pM [^125I]-anti-sauvagine-30 in 50 μl volume for the CRHR2 assay or with)[^125I]-([…]-sauvagine for the CRHR1 assay in the presence of 15 μl of competing ligand for 120 min having a total volume of 150 μl. […] The bound radioactivity was separated by filtration using a Multiscreen Resist manifold (Millipore Corp., Billerica, Mass., U.S.A). The filters were washed three times with ice-cold PBS at pH 7.5 and radioactivity retained on the filters was quantified by its liquid scintillation measured by a TopCount counter (Packard BioScience, Boston, Mass., U.S.A). All experiments were performed in triplicate. Data from individual competition curves were expressed as the percentage of specific [^125I]-anti-sauvagine-30 or)[^125I]-([…]-sauvagine binding (B) within each experiment. […] The competition curve obtained with h-SCP (SEQ ID NO:1) was biphasic.

The target of another assay is T2, h-CRHR2b (Homo sapiens, UniProt Q13324).
T2 sequence (Q13324 1-438 isoform Q13324-2): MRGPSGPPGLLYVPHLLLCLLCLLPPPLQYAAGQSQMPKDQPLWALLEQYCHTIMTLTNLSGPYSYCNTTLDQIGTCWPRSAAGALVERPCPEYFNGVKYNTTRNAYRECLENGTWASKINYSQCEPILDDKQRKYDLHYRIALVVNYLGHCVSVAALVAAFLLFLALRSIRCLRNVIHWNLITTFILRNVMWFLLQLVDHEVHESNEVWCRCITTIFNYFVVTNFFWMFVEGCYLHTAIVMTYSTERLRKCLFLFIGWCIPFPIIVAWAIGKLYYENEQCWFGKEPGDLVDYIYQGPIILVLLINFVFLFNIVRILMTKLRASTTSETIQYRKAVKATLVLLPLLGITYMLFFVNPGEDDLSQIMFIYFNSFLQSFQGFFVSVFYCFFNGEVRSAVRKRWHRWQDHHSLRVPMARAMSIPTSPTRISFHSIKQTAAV
To be noted: h-CRHR2b transfected HEK-293 cells, approximated values from concentration response curves (Hsu et al., 2001); cited from earlier work.

Assay [1] has as its system subjects with heart failure. The experiment in a line: Echocardiography substudy in heart failure subjects. It is filed as in vivo, human. The protocol: An echocardiography substudy was conducted to examine the impact of h-SCP (SEQ ID NO:1) on cardiodynamic parameters. Five subjects elected to participate in the echocardiography substudy. One subject received placebo and 4 subjects received h-SCP (SEQ ID NO:1) at doses ranging from 9 to 45 ng/kg/min during their last 2.5-hour infusion period when the echocardiogram was obtained. […] Because of the small number of subjects who participated in this substudy and the varied dose administered the results are not conclusionary, but mainly indicative of the effect.

For a further assay, the target named is T3, CRHR1 (Homo sapiens, UniProt P34998).
T3 sequence (P34998 24-415): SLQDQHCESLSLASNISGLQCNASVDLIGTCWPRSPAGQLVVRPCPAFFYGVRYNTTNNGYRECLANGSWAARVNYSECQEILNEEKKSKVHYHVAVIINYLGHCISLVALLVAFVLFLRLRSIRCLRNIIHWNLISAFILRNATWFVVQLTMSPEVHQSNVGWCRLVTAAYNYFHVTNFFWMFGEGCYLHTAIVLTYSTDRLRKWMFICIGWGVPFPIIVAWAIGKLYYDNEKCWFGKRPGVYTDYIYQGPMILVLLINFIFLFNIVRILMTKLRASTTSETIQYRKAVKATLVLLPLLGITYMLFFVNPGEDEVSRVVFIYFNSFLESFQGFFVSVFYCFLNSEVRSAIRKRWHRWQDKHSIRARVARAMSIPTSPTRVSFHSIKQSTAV
The experiment in a line: CRHR1 radioligand binding, [125I]-(Tyr0)-sauvagine. Also on record: host or cells: cell membranes. An excerpt:
The solution was then homogenized with a Polytron tissue grinder at a setting of 10 and 7×3 s (Brinkmann Instruments, Westbury, N.Y.). […] The bound radioactivity was separated by filtration using a Multiscreen Resist manifold (Millipore Corp., Billerica, Mass., U.S.A). The filters were washed three times with ice-cold PBS at pH 7.5 and radioactivity retained on the filters was quantified by its liquid scintillation measured by a TopCount counter (Packard BioScience, Boston, Mass., U.S.A). All experiments were performed in triplicate.

“And” between values parts separate entries of the source, which are not always exact repeats. Equal entries are not always repeated.

The term Ki denotes a measure of affinity in units of concentration, obtained from inhibition or displacement. For “H-HPGSRIVLSLDVPIGLLQILLEQARARAAREQATTNARILARV-NH2 [SEQ ID NO: 117, HPGSRIVLSLDVPIGLLQILLEQARARAAREQATTNARILARV-NH2, reference compound]”, at human CRHR2, the affinity corresponds to a Ki of 26.9 nM and the nH stood at 1.26 ± 0.14. Also, the “Published pA50” value at h-CRHR2b was ~9^4.

Consider “H-TKFTLSLDVPTNIMNLLFNIAKAKNLRAQAAANAHLMAQI-NH2 [SEQ ID NO: 1, TKFTLSLDVPTNIMNLLFNIAKAKNLRAQAAANAHLMAQI-NH2]”, for which the values for the Ki on human CRHR2 and at CRHR1 were 1950 nM and 25100 nM, respectively. In addition, the nH is given as 1.00 ± 0.04 at human CRHR2 and 1.16 ± 0.65 at CRHR1. Besides, at human CRHR2 (CRHR2, [125I]-anti-sauvagine-30), the “competition curve / binding profile” value is listed as “biphasic”. Further, the IC50 on human CRHR2 (biphasic competition curve, read-out: low pIC50 (low affinity receptor binding state) (converted)) is 251 nM. Besides, the “ejection fraction after infusion” value was 24.5% in assay [1] (one subject, 9 ng/kg/min, from 20%); 30.3% in assay [1] (one subject, 36 ng/kg/min, from 25.0%); 34.7% and 26.1% in assay [1] (two subjects, 45 ng/kg/min, from 36.0% and from 28.0%, listed as h-SCP). For the same compound, the “Published pA50” value on h-CRHR2b is listed as ~9^4.

On human CRHR2, `CC[C@H](C)[C@H](NC(=O)[C@H](CO)NC(=O)[C@H](CC(C)C)NC(=O)[C@@H]1CCCN1C(=O)[C@@H]1CCCN1C(=O)[C@H](CC(=O)O)NC(=O)[C@@H](N)CC(=O)O)C(=O)N[C@@H](CC(=O)O)C(=O)N[C@@H](CC(C)C)C(=O)N[C@H](C(=O)N[C@@H](Cc1ccccc1)C(=O)N[C@@H](Cc1c[nH]cn1)C(=O)N[C@@H](CC(C)C)C(=O)N[C@@H](CC(C)C)C(=O)N[C@@H](CCCNC(=N)N)C(=O)N[C@H](C(=O)N[C@@H](CC(C)C)C(=O)N[C@@H](CC(C)C)C(=O)N[C@@H](CCC(=O)O)C(=O)N[C@@H](CC(C)C)C(=O)N[C@@H](C)C(=O)N[C@@H](CCCNC(=N)N)C(=O)N[C@H](C(=O)N[C@@H](CCC(N)=O)C(=O)N[C@@H](CO)C(=O)N[C@@H](CCC(N)=O)C(=O)N[C@@H](CCCNC(=N)N)C(=O)N[C@@H](CCC(=O)O)C(=O)N[C@@H](CCCNC(=N)N)C(=O)N[C@@H](C)C(=O)N[C@@H](CCC(=O)O)C(=O)N[C@@H](CCC(N)=O)C(=O)N[C@@H](CC(N)=O)C(=O)N[C@@H](CCCNC(=N)N)C(=O)N[C@H](C(=O)N[C@H](C(=O)N[C@@H](Cc1ccccc1)C(=O)N[C@@H](CC(=O)O)C(=O)N[C@@H](CO)C(=O)N[C@H](C(N)=O)C(C)C)[C@@H](C)CC)[C@@H](C)CC)[C@@H](C)O)[C@@H](C)O)[C@@H](C)O` [SEQ ID NO: 114, DDPPLSIDLTFHLLRTLLELARTQSQRERAEQNRIIFDSV-NH2] had a Ki of 3.09 nM and a nH of 1.19 ± 0.14. On CRHR1, this compound yielded a nH of 0.91 ± 0.27.
